Reference: paper PMC11472320, “Computationally Driven Discovery of a BCR-ABL1 Kinase Inhibitor with Activity in Multidrug-Resistant Chronic Myeloid Leukemia” (Journal of Medicinal Chemistry, 2024)
Values joined by “and” are separate entries in the source; they are usually repeats but may differ in a detail not shown here. Identical values can stand only once. Like-named read-outs stand apart in the source and are kept apart here.

How the values were obtained:
MDCKII-MDR1 cells [1] = test: MDCKII-MDR1 permeability; settings: for MDCKII-MDR1 Efflux Ratio: n = 2
in vitro [2] = settings: human, Caco-2
[3] = Plasma protein binding by equilibrium dialysis; assay type: in vitro ADME; settings: human plasma
[4] = Metabolic stability in hepatocytes; assay type: in vitro ADME, human; settings: for hepatocyte CLint: both sexes, read-out: HEPClint (H); for hepatocyte CLint / t1/2 (H): human hepatocytes
Text: Metabolic stability in hepatocytes
Table S4. Hepatocyte details used in the hepatocyte stability assay.
Human Hepatocytes, Mixed-Gender BiolVT (Cat No. X008001)
Mouse Hepatocytes, Male-Gender BiolVT (Cat No. M005052)

MDR1 (P-gp) = test: in vitro; settings: dog, MDCK-MDR1
MDR1 = test: in vitro; settings: dog, MDCK-MDR1
in vitro [5] = settings: dog, MDCK-MDR1
[6] = Abraham ANMR value by NMR (CDCl3 vs DMSO-d6); assay type: physicochemical
Text: Previously, intramolecular N–H–F hydrogen bonds (HBs) have been proposed as a strategy to reduce P-gp-mediated efflux and improve passive permeability, as highlighted in the discovery of the brain-penetrant EGFR inhibitor, AZD-3759 (Figure 2A).[37]−[40] […] Consistent with this work, we conducted an NMR study of the EGFR inhibitor 7a and the BCR-ABL1 inhibitor 8a in deuterated chloroform (CDCl3) and in the more polar, HB-accepting dimethyl sulfoxide (DMSO-d6). […] This finding is further supported by the lack of ^1JNH-F coupling (≤1 Hz) in 7a and 8a, as contrasted with bona fide intramolecular HBs to fluorine, which typically have ^1JNH-F coupling constants >10 Hz as exemplified by 9 with its ^1JNH-F of 19.1 Hz.[41],[43]

Ph+ CML = test: Activity in Ph+ CML (Figure 2B annotation); assay type: cell-based; settings: annotation in Figure 2B
Lipophilicity logD7.4 = assay type: physicochemical; settings: pH 7.4
Caco-2 cells = test: Caco-2 permeability
Aqueous solubility = assay type: physicochemical; settings: pH 7.4
mutant BCR-ABL1 kinases = test: Biochemical kinase inhibition, summary statements; design: species or system human; settings: read-out: IC50 against mutant BCR-ABL1 kinases
cSRC wt = cSRC wt (Homo sapiens, UniProt P12931); test: KinaseProfiler enzymatic radiometric kinase assay
BCR-ABL1 wt = BCR-ABL1 wt (Homo sapiens, UniProt P00519); test: KinaseProfiler enzymatic radiometric kinase assay; settings: read-out: Kinase IC50 BCR-ABL1 wt; [ATP] = 10 µM, n = 2
[7] = cited from earlier work
[8] = cited from earlier work; remark: listed apart in the source
MDCKII-MDR1 cells [9] = settings: cited from earlier work
[10] = cited from earlier work; remark: listed apart in the source
K562 cells = test: Cell viability assay (CellTiter-Glo); assay type: cell-based, human
PRKD1 = target: T1, PRKD1 (Homo sapiens, UniProt Q15139); test: KINOMEScan; assay type: binding; settings: read-out: Percent Control
T1 construct: purchased Eurofins DiscoverX (KINOMEscan)

PRP4 = target: T2, PRP4 (Homo sapiens, UniProt Q13523); test: KINOMEScan; assay type: binding; settings: read-out: Percent Control
T2 construct: purchased Eurofins DiscoverX

PRKCI = target: T3, PRKCI (Homo sapiens, UniProt P41743); test: KINOMEScan; assay type: binding; settings: read-out: Percent Control
T3 construct: purchased Eurofins DiscoverX (KINOMEscan)

PFPK5(P.falciparum) = target: T4, PFPK5(P.falciparum) (Plasmodium falciparum, UniProt P61075); test: KINOMEScan; assay type: binding; settings: read-out: Percent Control
T4 construct: purchased Eurofins DiscoverX (KINOMEscan)

PRKCH = target: T5, PRKCH (Homo sapiens, UniProt P24723); test: KINOMEScan; assay type: binding; settings: read-out: Percent Control
T5 construct: purchased Eurofins DiscoverX (KINOMEscan)

PFCDPK1(P.falciparum) = target: T6, PFCDPK1(P.falciparum) (Plasmodium falciparum, UniProt P62344); test: KINOMEScan; assay type: binding; settings: read-out: Percent Control
T6 construct: purchased Eurofins DiscoverX (KINOMEscan)

PRKCE = target: T7, PRKCE (Homo sapiens, UniProt Q02156); test: KINOMEScan; assay type: binding; settings: read-out: Percent Control
T7 construct: purchased Eurofins DiscoverX (KINOMEscan)

CDC2L5 = target: T8, CDC2L5 (Homo sapiens, UniProt Q14004); test: KINOMEScan; assay type: binding; settings: read-out: Percent Control
T8 construct: purchased Eurofins DiscoverX (KINOMEscan)

PKNB(M.tuberculosis) = target: T9, PKNB(M.tuberculosis) (Mycobacterium tuberculosis, UniProt P9WI81); test: KINOMEScan; assay type: binding; settings: read-out: Percent Control
T9 construct: purchased Eurofins DiscoverX (KINOMEscan)

PRKCD = target: T10, PRKCD (Homo sapiens, UniProt Q05655); test: KINOMEScan; assay type: binding; settings: read-out: Percent Control
T10 construct: purchased Eurofins DiscoverX (KINOMEscan)

PRKD3 = target: T11, PRKD3 (Homo sapiens, UniProt O94806); test: KINOMEScan; assay type: binding; settings: read-out: Percent Control
T11 construct: purchased Eurofins DiscoverX (KINOMEscan)

PRKCQ = target: T12, PRKCQ (Homo sapiens, UniProt Q04759); test: KINOMEScan; assay type: binding; settings: read-out: Percent Control
T12 construct: purchased Eurofins DiscoverX (KINOMEscan)
T12 sequence (Q04759 whole entry): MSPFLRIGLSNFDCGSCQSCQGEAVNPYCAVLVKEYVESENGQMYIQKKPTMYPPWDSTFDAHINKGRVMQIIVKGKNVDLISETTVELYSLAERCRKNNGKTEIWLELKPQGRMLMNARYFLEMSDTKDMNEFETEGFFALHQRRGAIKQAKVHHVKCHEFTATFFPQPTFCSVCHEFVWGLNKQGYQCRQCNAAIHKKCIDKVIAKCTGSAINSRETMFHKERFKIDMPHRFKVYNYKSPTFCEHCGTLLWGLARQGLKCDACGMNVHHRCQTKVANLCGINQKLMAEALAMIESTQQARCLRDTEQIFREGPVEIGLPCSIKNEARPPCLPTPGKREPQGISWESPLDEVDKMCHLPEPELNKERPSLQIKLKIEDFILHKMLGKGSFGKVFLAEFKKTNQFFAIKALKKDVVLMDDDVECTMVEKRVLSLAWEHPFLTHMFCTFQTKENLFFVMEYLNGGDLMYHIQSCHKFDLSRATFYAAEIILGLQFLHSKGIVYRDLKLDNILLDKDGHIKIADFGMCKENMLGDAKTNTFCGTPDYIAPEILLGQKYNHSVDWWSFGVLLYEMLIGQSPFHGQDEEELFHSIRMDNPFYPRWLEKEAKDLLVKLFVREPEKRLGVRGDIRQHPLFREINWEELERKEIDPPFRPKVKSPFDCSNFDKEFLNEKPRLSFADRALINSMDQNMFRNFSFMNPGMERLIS

Sequence of BCR-ABL1 wt (P00519 27-1130 limits assumed): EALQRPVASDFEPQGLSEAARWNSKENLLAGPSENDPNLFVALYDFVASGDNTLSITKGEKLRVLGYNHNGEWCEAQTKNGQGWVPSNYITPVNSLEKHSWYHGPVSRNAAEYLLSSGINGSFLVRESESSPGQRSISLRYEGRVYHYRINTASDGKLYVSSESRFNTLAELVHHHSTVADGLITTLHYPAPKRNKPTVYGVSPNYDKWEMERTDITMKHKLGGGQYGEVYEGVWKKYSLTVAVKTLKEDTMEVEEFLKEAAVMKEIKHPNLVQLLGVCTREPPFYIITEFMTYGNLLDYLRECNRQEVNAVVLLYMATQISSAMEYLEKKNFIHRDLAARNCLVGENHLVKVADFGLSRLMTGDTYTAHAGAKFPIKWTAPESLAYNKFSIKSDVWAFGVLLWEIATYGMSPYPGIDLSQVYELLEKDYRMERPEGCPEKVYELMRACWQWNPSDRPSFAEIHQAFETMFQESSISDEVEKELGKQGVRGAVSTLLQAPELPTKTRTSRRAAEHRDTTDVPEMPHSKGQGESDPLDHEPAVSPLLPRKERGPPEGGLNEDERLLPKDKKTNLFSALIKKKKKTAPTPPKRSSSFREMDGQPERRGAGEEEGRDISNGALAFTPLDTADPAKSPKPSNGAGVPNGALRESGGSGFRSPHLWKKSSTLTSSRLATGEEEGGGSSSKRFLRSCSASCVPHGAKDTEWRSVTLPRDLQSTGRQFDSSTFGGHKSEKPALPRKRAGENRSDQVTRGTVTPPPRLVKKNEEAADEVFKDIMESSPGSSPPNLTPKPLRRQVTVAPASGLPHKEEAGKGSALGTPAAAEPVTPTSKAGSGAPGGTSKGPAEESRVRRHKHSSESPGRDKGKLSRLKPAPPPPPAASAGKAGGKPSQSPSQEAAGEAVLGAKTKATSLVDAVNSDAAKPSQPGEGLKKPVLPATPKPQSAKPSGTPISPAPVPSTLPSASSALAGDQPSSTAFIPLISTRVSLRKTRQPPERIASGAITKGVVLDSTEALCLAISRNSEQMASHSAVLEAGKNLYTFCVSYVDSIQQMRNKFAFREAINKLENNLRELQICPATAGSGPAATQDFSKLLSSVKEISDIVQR
Sequence of cSRC wt (P12931 whole entry): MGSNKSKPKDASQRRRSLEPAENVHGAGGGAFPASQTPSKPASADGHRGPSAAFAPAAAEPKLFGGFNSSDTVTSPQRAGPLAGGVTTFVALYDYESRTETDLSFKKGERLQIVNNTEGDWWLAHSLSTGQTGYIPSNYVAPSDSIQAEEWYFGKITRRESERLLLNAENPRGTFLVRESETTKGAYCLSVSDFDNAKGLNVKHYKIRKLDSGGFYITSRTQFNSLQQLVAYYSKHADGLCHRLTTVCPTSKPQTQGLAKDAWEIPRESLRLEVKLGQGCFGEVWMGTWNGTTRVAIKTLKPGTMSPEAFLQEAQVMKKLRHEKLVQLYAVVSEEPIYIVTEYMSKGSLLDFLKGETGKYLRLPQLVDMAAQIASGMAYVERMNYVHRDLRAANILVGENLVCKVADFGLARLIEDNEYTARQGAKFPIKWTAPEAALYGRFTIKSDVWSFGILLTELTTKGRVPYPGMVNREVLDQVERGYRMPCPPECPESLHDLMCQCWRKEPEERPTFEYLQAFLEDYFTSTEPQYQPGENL
T1 sequence (Q15139 whole entry): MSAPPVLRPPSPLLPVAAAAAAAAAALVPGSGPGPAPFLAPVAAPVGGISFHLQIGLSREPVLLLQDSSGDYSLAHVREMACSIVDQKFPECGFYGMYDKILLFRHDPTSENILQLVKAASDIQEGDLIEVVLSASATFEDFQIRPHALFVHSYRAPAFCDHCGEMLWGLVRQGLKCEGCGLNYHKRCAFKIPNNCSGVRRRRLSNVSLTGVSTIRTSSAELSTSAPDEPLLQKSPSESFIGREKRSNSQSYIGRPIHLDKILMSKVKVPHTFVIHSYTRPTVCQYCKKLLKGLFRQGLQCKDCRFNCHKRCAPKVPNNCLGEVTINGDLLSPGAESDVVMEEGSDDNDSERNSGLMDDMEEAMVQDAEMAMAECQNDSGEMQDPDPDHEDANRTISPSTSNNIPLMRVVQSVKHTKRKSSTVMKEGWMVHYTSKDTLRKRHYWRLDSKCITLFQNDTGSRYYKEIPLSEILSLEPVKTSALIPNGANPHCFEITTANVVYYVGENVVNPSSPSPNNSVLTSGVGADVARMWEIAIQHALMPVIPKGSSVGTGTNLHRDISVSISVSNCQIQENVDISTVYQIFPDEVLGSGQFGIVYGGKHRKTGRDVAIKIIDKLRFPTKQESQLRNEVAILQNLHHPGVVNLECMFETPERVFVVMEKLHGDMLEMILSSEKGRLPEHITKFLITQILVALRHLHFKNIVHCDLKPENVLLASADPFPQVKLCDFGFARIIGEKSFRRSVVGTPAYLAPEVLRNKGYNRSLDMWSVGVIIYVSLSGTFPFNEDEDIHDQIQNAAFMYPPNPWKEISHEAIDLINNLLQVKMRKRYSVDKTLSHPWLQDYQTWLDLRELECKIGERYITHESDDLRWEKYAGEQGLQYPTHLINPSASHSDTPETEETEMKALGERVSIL
T8 sequence (Q14004 whole entry): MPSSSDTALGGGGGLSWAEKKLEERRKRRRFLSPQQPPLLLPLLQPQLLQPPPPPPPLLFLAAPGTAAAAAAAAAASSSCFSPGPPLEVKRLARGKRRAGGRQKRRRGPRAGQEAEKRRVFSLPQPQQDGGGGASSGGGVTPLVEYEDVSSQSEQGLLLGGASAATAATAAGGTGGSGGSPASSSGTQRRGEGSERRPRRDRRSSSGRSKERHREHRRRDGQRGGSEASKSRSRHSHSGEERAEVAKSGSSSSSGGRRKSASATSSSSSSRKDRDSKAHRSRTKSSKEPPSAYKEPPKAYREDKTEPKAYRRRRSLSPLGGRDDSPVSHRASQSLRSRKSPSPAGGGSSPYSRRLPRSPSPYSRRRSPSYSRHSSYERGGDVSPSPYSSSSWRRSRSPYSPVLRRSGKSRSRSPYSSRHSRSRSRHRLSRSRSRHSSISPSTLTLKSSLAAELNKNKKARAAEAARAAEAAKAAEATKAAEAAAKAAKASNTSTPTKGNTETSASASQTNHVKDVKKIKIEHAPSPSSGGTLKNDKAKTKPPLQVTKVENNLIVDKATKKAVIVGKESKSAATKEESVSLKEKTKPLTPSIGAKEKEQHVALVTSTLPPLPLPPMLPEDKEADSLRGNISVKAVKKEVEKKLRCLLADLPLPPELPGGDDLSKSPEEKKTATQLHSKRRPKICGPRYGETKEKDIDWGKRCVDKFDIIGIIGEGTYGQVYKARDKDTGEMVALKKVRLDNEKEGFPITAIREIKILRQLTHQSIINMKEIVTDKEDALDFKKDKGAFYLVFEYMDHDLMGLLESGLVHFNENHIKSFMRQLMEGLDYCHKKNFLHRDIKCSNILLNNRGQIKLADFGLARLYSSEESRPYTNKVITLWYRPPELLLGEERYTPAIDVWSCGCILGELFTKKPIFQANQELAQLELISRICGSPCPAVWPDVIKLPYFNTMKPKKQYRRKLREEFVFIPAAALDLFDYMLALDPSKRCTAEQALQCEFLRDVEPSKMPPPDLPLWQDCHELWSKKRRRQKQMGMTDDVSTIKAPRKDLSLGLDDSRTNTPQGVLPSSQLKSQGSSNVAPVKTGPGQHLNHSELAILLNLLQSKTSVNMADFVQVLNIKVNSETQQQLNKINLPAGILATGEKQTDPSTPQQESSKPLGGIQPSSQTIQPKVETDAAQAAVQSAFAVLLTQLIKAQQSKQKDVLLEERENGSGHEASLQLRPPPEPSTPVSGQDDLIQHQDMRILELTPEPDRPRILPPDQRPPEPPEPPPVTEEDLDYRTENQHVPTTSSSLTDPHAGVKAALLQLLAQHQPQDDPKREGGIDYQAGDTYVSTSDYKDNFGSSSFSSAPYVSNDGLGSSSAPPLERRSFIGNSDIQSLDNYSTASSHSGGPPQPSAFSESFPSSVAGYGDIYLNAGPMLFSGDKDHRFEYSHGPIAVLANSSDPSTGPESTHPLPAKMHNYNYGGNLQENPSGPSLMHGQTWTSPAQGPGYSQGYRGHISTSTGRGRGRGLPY
T4 sequence (P61075 whole entry): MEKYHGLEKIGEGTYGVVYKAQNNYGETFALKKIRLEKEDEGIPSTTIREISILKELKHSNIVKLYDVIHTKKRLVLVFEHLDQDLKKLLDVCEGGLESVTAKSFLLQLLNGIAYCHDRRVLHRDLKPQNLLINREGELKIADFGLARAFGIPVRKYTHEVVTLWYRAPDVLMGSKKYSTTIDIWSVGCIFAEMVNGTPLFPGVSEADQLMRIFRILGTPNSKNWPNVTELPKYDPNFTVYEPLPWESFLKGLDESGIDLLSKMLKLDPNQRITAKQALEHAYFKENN

| SMILES | Recovery% (BL-AP) (MDCKII-MDR1 cells [1]; Table S7) [%] | Papp A→B (in vitro [2]) [×10⁻⁶ cm/s] | Papp B→A (in vitro [2]) [×10⁻⁶ cm/s] | efflux ratio (in vitro [2]) | Remaining Percentages ([4]; 0.5 min) [%] | Remaining Percentages ([4]; 15 min) [%] | Remaining Percentages ([4]; 30 min) [%] | Remaining Percentages ([4]; 60 min) [%] | Remaining Percentages ([4]; 90 min) [%] | Remaining Percentages ([4]; 120 min) [%] | hepatocyte CLint [4] [µL/min/1e6 cells] | t1/2 (H) [4] [min] | Papp A→B (MDR1 (P-gp)) [×10⁻⁶ cm/s] | Papp B→A (MDR1 (P-gp)) [×10⁻⁶ cm/s] | Papp A→B (MDR1) [×10⁻⁶ cm/s] | efflux ratio (MDR1) | recovery (in vitro [5]) [%] | Abraham ANMR Value (aniline N-H) [6] | logD (Lipophilicity logD7.4) | Recovery% (BL-AP) (Caco-2 cells; Table S9) [%] | other results |
| --- | --- | --- | --- | --- | --- | --- | --- | --- | --- | --- | --- | --- | --- | --- | --- | --- | --- | --- | --- | --- | --- |
| COc1cc(Nc2c(C#N)cnc3cc(OCCON4CCN(C)CC4)c(OC)cc23)c(F)cc1Cl [8a, 4-((4-Chloro-2-fluoro-5-methoxyphenyl)amino)-6-methoxy-7-(2-((4-methylpiperazin-1-yl)oxy)ethoxy)quinoline-3-carbonitrile] | 64.87 | 1.94 | 12.1 | 6.4 | 100.00 | 69.28 | 52.48 | 29.45 | 15.72 | 9.48 | 40.5 | 34.2 | 0.7 | 19.3 | 0.73 | 26.4 | 79.8 | > 0.30 and 0.40 | 3.4 | 72.31 | P-gp efflux status (MDCKII-MDR1 cells [1]): P-gp Substrate; MDCKII-MDR1 Efflux Ratio (MDCKII-MDR1 cells [1]): 27.6; recovery (in vitro [2]): 61.2%; fraction unbound ([3]; both sexes): 0.0558; recovery ([3]; both sexes): 99.9%; remaining at 6 h ([3]; both sexes, 6 h): 92.7%; %Unbound [3]: 5.58%; Activity in Ph+ CML (Ph+ CML): Moderate Activity; efflux ratio (Caco-2 cells; Table S9): 6.22; Caco-2 Papp (a-b) (Caco-2 cells): 1.9 ×10⁻⁶ cm/s; Caco-2 Papp (b-a) (Caco-2 cells): 12.1 ×10⁻⁶ cm/s; Aq. Sol. (Aqueous solubility): 43 µM; IC50 (mutant BCR-ABL1 kinases): < 1 nM; IC50 (cSRC wt): 2 nM; IC50 (BCR-ABL1 wt): 1 nM |
| Fc1c2c(cc3ncnc(Nc4ccccc4)c13)OCCO2 [compound 9] |  |  |  |  |  |  |  |  |  |  |  |  |  |  |  |  |  |  |  |  | Abraham ANMR Value [7]: 0.10 |
| COc1cc2c(Nc3cccc(Cl)c3F)c(C#N)cnc2cc1OCCON1CCN(C)CC1 [11a, 4-((3-Chloro-2-fluorophenyl)amino)-6-methoxy-7-(2-((4-methylpiperazin-1-yl)oxy)ethoxy)quinoline-3-carbonitrile] | 85.59 | 3.66 | 27.4 | 7.4 | 100.00 | 82.49 | 66.92 | 45.06 | 29.85 | 18.60 | 27.9 | 49.7 | 7.2 | 29.6 | 7.16 | 4.15 | 71.6 | 0.40 | 3.3 | 80.51 | P-gp efflux status (MDCKII-MDR1 cells [1]): Moderate P-gp Substrate; MDCKII-MDR1 Efflux Ratio (MDCKII-MDR1 cells [1]): 4.1; recovery (in vitro [2]): 60.5%; Papp B→A (MDR1): 29.6 ×10⁻⁶ cm/s; Activity in Ph+ CML (Ph+ CML): Poor Activity; efflux ratio (Caco-2 cells; Table S9): 7.49; Caco-2 Papp (a-b) (Caco-2 cells): 3.7 ×10⁻⁶ cm/s; Caco-2 Papp (b-a) (Caco-2 cells): 27.4 ×10⁻⁶ cm/s; Aq. Sol. (Aqueous solubility): 14 µM |
| COc1cc2ncnc(Nc3cccc(Cl)c3F)c2cc1OCCON1CCN(C)CC1 [7a] |  |  |  |  |  |  |  |  |  |  |  |  |  |  |  |  |  | > 0.30 and 0.31 |  |  | AMES [8]: Negative; P-gp efflux status (MDCKII-MDR1 cells [9]): Not a P-gp Substrate; Micronucleus [10]: Negative |
| COc1cc(Nc2c(C#N)cnc3cc(OCCON4CCN(C)CC4)c(OC)cc23)ccc1Cl [14a] | 77.51 | 1.99 | 37.4 | 18.7 | 100.00 | 83.13 | 68.12 | 50.16 | 37.41 | 25.52 | 22.3 | 62.3 | 4.1 | 24.7 | 4.08 | 6 | 75.4 |  | 3.1 | 92.37 | efflux ratio (MDCKII-MDR1 cells [1]; Table S7): 6.05; Papp B→A (MDR1): 24.7 ×10⁻⁶ cm/s; Recovery% (AP-BL) (Caco-2 cells; Table S9): 65.43%; efflux ratio (Caco-2 cells; Table S9): 18.96; Caco-2 Papp (a-b) (Caco-2 cells): 2 ×10⁻⁶ cm/s; Caco-2 Papp (b-a) (Caco-2 cells): 37.4 ×10⁻⁶ cm/s; Aq. Sol. (Aqueous solubility): 7 µM; IC50 (cSRC wt): 2 nM; IC50 (BCR-ABL1 wt): < 1 nM; IC50 (K562 cells; Homo sapiens, K562, 72 h, read-out: K562 Cell Line IC50 (95% CI), 72 h, n = 3, unadjusted for FBS): 218 nM; IC50 (K562 cells; read-out: K562 Cell Line IC50 (95% CI), 72 h, n = 3, unadjusted for FBS): 186 nM |
| COc1c2c(cc3ncnc(Nc4ccccc4)c13)OCCO2 [compound 10] |  |  |  |  |  |  |  |  |  |  |  |  |  |  |  |  |  |  |  |  | Abraham ANMR Value [7]: 0.02 |
| COc1cc(Nc2c(C#N)cnc3cc(OCCON4CCN(C)CC4)c(OC)cc23)c(Cl)cc1Cl [5a] |  |  |  |  |  |  |  |  |  |  |  |  |  |  |  |  |  |  |  |  | Micronucleus [10]: Negative |
| COc1cc2c(Nc3ccc(Cl)c(OC)n3)c(C#N)cnc2cc1OCCON1CCN(C)CC1 [16a, 4-((5-Chloro-6-methoxypyridin-2-yl)amino)-6-methoxy-7-(2-((4-methylpiperazin-1-yl)oxy)ethoxy)quinoline-3-carbonitrile] |  |  |  |  |  |  |  |  |  |  |  |  |  |  |  |  |  |  |  |  | remaining binding at 1 µM (PRKD1): 78%; remaining binding at 1 µM (PRP4): 33%; remaining binding at 1 µM (PRKCI): 61%; remaining binding at 1 µM (PFPK5(P.falciparum)): 100%; remaining binding at 1 µM (PRKCH): 84%; remaining binding at 1 µM (PFCDPK1(P.falciparum)): 18%; remaining binding at 1 µM (PRKCE): 70%; remaining binding at 1 µM (CDC2L5): 100%; remaining binding at 1 µM (PKNB(M.tuberculosis)): 53%; remaining binding at 1 µM (PRKCD): 42%; remaining binding at 1 µM (PRKD3): 58%; remaining binding at 1 µM (PRKCQ): 30% |
